# Assay results taken from ChEMBL document CHEMBL2429768, “Eco-friendly synthesis and antimicrobial activities of substituted-5-(1H-indol-3-yl)methylene)-2,2-dimethyl-1,3-dioxane-4,6-dione derivatives” (2013).
# What was measured:
# Format in all cases: functional
# [1] = system: Escherichia coli; assay: Antibacterial activity against Escherichia coli ATCC 8739 at 300 ug/ml after 24 hrs by agar well diffusion method; settings: ATCC 8739, 24 h, read-out: DIZ
# [2] = system: Aspergillus flavus; assay: Antifungal activity against Aspergillus flavus after 72 hrs by agar well diffusion method
# [3] = system: Klebsiella pneumoniae; assay: Antibacterial activity against Klebsiella pneumoniae at 50 ug/ml after 24 hrs by agar well diffusion method; settings: read-out: DIZ
# [4] = system: Rhizoctonia solani; assay: Antifungal activity against Rhizoctonia solani at 200 ug/ml after 72 hrs by agar well diffusion method; settings: read-out: DIZ
# [5] = system: Klebsiella pneumoniae; assay: Antibacterial activity against Klebsiella pneumoniae at 300 ug/ml after 24 hrs by agar well diffusion method; settings: read-out: DIZ
# [6] = system: Escherichia coli; assay: Antibacterial activity against Escherichia coli ATCC 8739 at 200 ug/ml after 24 hrs by agar well diffusion method; settings: ATCC 8739, 24 h, read-out: DIZ
# [7] = system: Staphylococcus aureus; assay: Antibacterial activity against Staphylococcus aureus ATCC 6538 at 300 ug/ml after 24 hrs by agar well diffusion method; settings: ATCC 6538, 24 h, read-out: DIZ
# [8] = system: Fusarium oxysporum; assay: Antifungal activity against Fusarium oxysporum at 50 ug/ml after 72 hrs by agar well diffusion method; settings: read-out: DIZ
# [9] = system: Staphylococcus aureus; assay: Antibacterial activity against Staphylococcus aureus ATCC 6538 at 500 ug/ml after 24 hrs by agar well diffusion method; settings: ATCC 6538, 24 h, read-out: DIZ
# [10] = system: Klebsiella pneumoniae; assay: Antibacterial activity against Klebsiella pneumoniae at 500 ug/ml after 24 hrs by agar well diffusion method; settings: read-out: DIZ
# [11] = system: Escherichia coli; assay: Antibacterial activity against Escherichia coli ATCC 8739 after 24 hrs by agar well diffusion method; settings: ATCC 8739, 24 h
# [12] = system: Bacillus subtilis; assay: Antibacterial activity against Bacillus subtilis at 500 ug/ml after 24 hrs by agar well diffusion method; settings: read-out: DIZ
# [13] = system: Aspergillus niger; assay: Antifungal activity against Aspergillus niger at 300 ug/ml after 72 hrs by agar well diffusion method; settings: read-out: DIZ
# [14] = system: Staphylococcus aureus; assay: Antibacterial activity against Staphylococcus aureus ATCC 6538 after 24 hrs by agar well diffusion method; settings: ATCC 6538, 24 h
# [15] = system: Aspergillus niger; assay: Antifungal activity against Aspergillus niger at 500 ug/ml after 72 hrs by agar well diffusion method; settings: read-out: DIZ
# [16] = system: Rhizoctonia solani; assay: Antifungal activity against Rhizoctonia solani at 50 ug/ml after 72 hrs by agar well diffusion method; settings: read-out: DIZ
# [17] = system: Bacillus subtilis; assay: Antibacterial activity against Bacillus subtilis at 200 ug/ml after 24 hrs by agar well diffusion method; settings: read-out: DIZ
# [18] = system: Fusarium oxysporum; assay: Antifungal activity against Fusarium oxysporum at 200 ug/ml after 72 hrs by agar well diffusion method; settings: read-out: DIZ
# [19] = system: Bacillus subtilis; assay: Antibacterial activity against Bacillus subtilis after 24 hrs by agar well diffusion method
# [20] = system: Rhizoctonia solani; assay: Antifungal activity against Rhizoctonia solani at 300 ug/ml after 72 hrs by agar well diffusion method; settings: read-out: DIZ
# [21] = system: Klebsiella pneumoniae; assay: Antibacterial activity against Klebsiella pneumoniae after 24 hrs by agar well diffusion method
# [22] = system: Aspergillus niger; assay: Antifungal activity against Aspergillus niger at 200 ug/ml after 72 hrs by agar well diffusion method; settings: read-out: DIZ
# [23] = system: Bacillus subtilis; assay: Antibacterial activity against Bacillus subtilis at 50 ug/ml after 24 hrs by agar well diffusion method; settings: read-out: DIZ
# [24] = system: Escherichia coli; assay: Antibacterial activity against Escherichia coli ATCC 8739 at 500 ug/ml after 24 hrs by agar well diffusion method; settings: ATCC 8739, 24 h, read-out: DIZ
# [25] = system: Aspergillus flavus; assay: Antifungal activity against Aspergillus flavus at 200 ug/ml after 72 hrs by agar well diffusion method; settings: read-out: DIZ
# [26] = system: Aspergillus niger; assay: Antifungal activity against Aspergillus niger at 100 ug/ml after 72 hrs by agar well diffusion method; settings: read-out: DIZ
# [27] = system: Fusarium oxysporum; assay: Antifungal activity against Fusarium oxysporum at 100 ug/ml after 72 hrs by agar well diffusion method; settings: read-out: DIZ
# [28] = system: Aspergillus niger; assay: Antifungal activity against Aspergillus niger at 50 ug/ml after 72 hrs by agar well diffusion method; settings: read-out: DIZ
# [29] = system: Aspergillus niger; assay: Antifungal activity against Aspergillus niger after 72 hrs by agar well diffusion method
# [30] = system: Staphylococcus aureus; assay: Antibacterial activity against Staphylococcus aureus ATCC 6538 at 200 ug/ml after 24 hrs by agar well diffusion method; settings: ATCC 6538, 24 h, read-out: DIZ
# [31] = system: Escherichia coli; assay: Antibacterial activity against Escherichia coli ATCC 8739 at 100 ug/ml after 24 hrs by agar well diffusion method; settings: ATCC 8739, 24 h, read-out: DIZ
# [32] = system: Bacillus subtilis; assay: Antibacterial activity against Bacillus subtilis at 300 ug/ml after 24 hrs by agar well diffusion method; settings: read-out: DIZ
# [33] = system: Aspergillus flavus; assay: Antifungal activity against Aspergillus flavus at 100 ug/ml after 72 hrs by agar well diffusion method; settings: read-out: DIZ
# [34] = system: Fusarium oxysporum; assay: Antifungal activity against Fusarium oxysporum after 72 hrs by agar well diffusion method
# [35] = system: Bacillus subtilis; assay: Antibacterial activity against Bacillus subtilis at 100 ug/ml after 24 hrs by agar well diffusion method; settings: read-out: DIZ
# [36] = system: Rhizoctonia solani; assay: Antifungal activity against Rhizoctonia solani at 500 ug/ml after 72 hrs by agar well diffusion method; settings: read-out: DIZ
# [37] = system: Fusarium oxysporum; assay: Antifungal activity against Fusarium oxysporum at 300 ug/ml after 72 hrs by agar well diffusion method; settings: read-out: DIZ
# [38] = system: Klebsiella pneumoniae; assay: Antibacterial activity against Klebsiella pneumoniae at 200 ug/ml after 24 hrs by agar well diffusion method; settings: read-out: DIZ
# [39] = system: Aspergillus flavus; assay: Antifungal activity against Aspergillus flavus at 300 ug/ml after 72 hrs by agar well diffusion method; settings: read-out: DIZ
# [40] = system: Rhizoctonia solani; assay: Antifungal activity against Rhizoctonia solani at 100 ug/ml after 72 hrs by agar well diffusion method; settings: read-out: DIZ
# [41] = system: Aspergillus flavus; assay: Antifungal activity against Aspergillus flavus at 500 ug/ml after 72 hrs by agar well diffusion method; settings: read-out: DIZ
# [42] = system: Fusarium oxysporum; assay: Antifungal activity against Fusarium oxysporum at 500 ug/ml after 72 hrs by agar well diffusion method; settings: read-out: DIZ
# [43] = system: Staphylococcus aureus; assay: Antibacterial activity against Staphylococcus aureus ATCC 6538 at 100 ug/ml after 24 hrs by agar well diffusion method; settings: ATCC 6538, 24 h, read-out: DIZ
# [44] = system: Rhizoctonia solani; assay: Antifungal activity against Rhizoctonia solani after 72 hrs by agar well diffusion method
# [45] = system: Escherichia coli; assay: Antibacterial activity against Escherichia coli ATCC 8739 at 50 ug/ml after 24 hrs by agar well diffusion method; settings: ATCC 8739, 24 h, read-out: DIZ
# [46] = system: Staphylococcus aureus; assay: Antibacterial activity against Staphylococcus aureus ATCC 6538 at 50 ug/ml after 24 hrs by agar well diffusion method; settings: ATCC 6538, 24 h, read-out: DIZ
# [47] = system: Aspergillus flavus; assay: Antifungal activity against Aspergillus flavus at 50 ug/ml after 72 hrs by agar well diffusion method; settings: read-out: DIZ
# [48] = system: Klebsiella pneumoniae; assay: Antibacterial activity against Klebsiella pneumoniae at 100 ug/ml after 24 hrs by agar well diffusion method; settings: read-out: DIZ
smiles,measurement,setting,value
CCn1cc(C=C2C(=O)OC(C)(C)OC2=O)c2cc([N+](=O)[O-])ccc21,zone of inhibition at 300 µg/mL,[1],20 mm
same,MIC,[2],40 µg/mL
same,zone of inhibition at 50 µg/mL,[3],9 mm
same,zone of inhibition at 200 µg/mL,[4],16 mm
same,zone of inhibition at 300 µg/mL,[5],23 mm
same,zone of inhibition at 200 µg/mL,[6],15 mm
same,zone of inhibition at 300 µg/mL,[7],16 mm
same,zone of inhibition at 50 µg/mL,[8],7 mm
same,zone of inhibition at 500 µg/mL,[9],26 mm
same,zone of inhibition at 500 µg/mL,[10],32 mm
same,MIC,[11],15 µg/mL
same,zone of inhibition at 500 µg/mL,[12],22 mm
same,zone of inhibition at 300 µg/mL,[13],18 mm
same,MIC,[14],25 µg/mL
same,zone of inhibition at 500 µg/mL,[15],25 mm
same,zone of inhibition at 50 µg/mL,[16],7 mm
same,zone of inhibition at 200 µg/mL,[17],11 mm
same,zone of inhibition at 200 µg/mL,[18],16 mm
same,MIC,[19],30 µg/mL
same,zone of inhibition at 300 µg/mL,[20],21 mm
same,MIC,[21],15 µg/mL
same,zone of inhibition at 200 µg/mL,[22],14 mm
same,zone of inhibition at 50 µg/mL,[23],4 mm
same,zone of inhibition at 500 µg/mL,[24],31 mm
same,zone of inhibition at 200 µg/mL,[25],12 mm
same,zone of inhibition at 100 µg/mL,[26],10 mm
same,zone of inhibition at 100 µg/mL,[27],12 mm
same,zone of inhibition at 50 µg/mL,[28],6 mm
same,MIC,[29],40 µg/mL
same,zone of inhibition at 200 µg/mL,[30],13 mm
same,zone of inhibition at 100 µg/mL,[31],13 mm
same,zone of inhibition at 300 µg/mL,[32],14 mm
same,zone of inhibition at 100 µg/mL,[33],9 mm
same,MIC,[34],35 µg/mL
same,zone of inhibition at 100 µg/mL,[35],9 mm
same,zone of inhibition at 500 µg/mL,[36],29 mm
same,zone of inhibition at 300 µg/mL,[37],21 mm
same,zone of inhibition at 200 µg/mL,[38],18 mm
same,zone of inhibition at 300 µg/mL,[39],15 mm
same,zone of inhibition at 100 µg/mL,[40],12 mm
same,zone of inhibition at 500 µg/mL,[41],23 mm
same,zone of inhibition at 500 µg/mL,[42],29 mm
same,zone of inhibition at 100 µg/mL,[43],10 mm
same,MIC,[44],35 µg/mL
same,zone of inhibition at 50 µg/mL,[45],8 mm
same,zone of inhibition at 50 µg/mL,[46],6 mm
same,zone of inhibition at 50 µg/mL,[47],4 mm
same,zone of inhibition at 100 µg/mL,[48],14 mm
Cn1cc(C=C2C(=O)OC(C)(C)OC2=O)c2cc([N+](=O)[O-])ccc21,zone of inhibition at 300 µg/mL,[1],20 mm
same,MIC,[2],40 µg/mL
same,zone of inhibition at 50 µg/mL,[3],9 mm
same,zone of inhibition at 200 µg/mL,[4],16 mm
same,zone of inhibition at 300 µg/mL,[5],23 mm
same,zone of inhibition at 200 µg/mL,[6],16 mm
same,zone of inhibition at 300 µg/mL,[7],18 mm
same,zone of inhibition at 50 µg/mL,[8],7 mm
same,zone of inhibition at 500 µg/mL,[9],25 mm
same,zone of inhibition at 500 µg/mL,[10],31 mm
same,MIC,[11],15 µg/mL
same,zone of inhibition at 500 µg/mL,[12],23 mm
same,zone of inhibition at 300 µg/mL,[13],18 mm
same,MIC,[14],25 µg/mL
same,zone of inhibition at 500 µg/mL,[15],25 mm
same,zone of inhibition at 50 µg/mL,[16],7 mm
same,zone of inhibition at 200 µg/mL,[17],12 mm
same,zone of inhibition at 200 µg/mL,[18],16 mm
same,MIC,[19],30 µg/mL
same,zone of inhibition at 300 µg/mL,[20],21 mm
same,MIC,[21],15 µg/mL
same,zone of inhibition at 200 µg/mL,[22],14 mm
same,zone of inhibition at 50 µg/mL,[23],4 mm
same,zone of inhibition at 500 µg/mL,[24],30 mm
same,zone of inhibition at 200 µg/mL,[25],12 mm
same,zone of inhibition at 100 µg/mL,[26],10 mm
same,zone of inhibition at 100 µg/mL,[27],12 mm
same,zone of inhibition at 50 µg/mL,[28],6 mm
same,MIC,[29],40 µg/mL
same,zone of inhibition at 200 µg/mL,[30],14 mm
same,zone of inhibition at 100 µg/mL,[31],13 mm
same,zone of inhibition at 300 µg/mL,[32],15 mm
same,zone of inhibition at 100 µg/mL,[33],9 mm
same,MIC,[34],35 µg/mL
same,zone of inhibition at 100 µg/mL,[35],9 mm
same,zone of inhibition at 500 µg/mL,[36],29 mm
same,zone of inhibition at 300 µg/mL,[37],21 mm
same,zone of inhibition at 200 µg/mL,[38],18 mm
same,zone of inhibition at 300 µg/mL,[39],15 mm
same,zone of inhibition at 100 µg/mL,[40],12 mm
same,zone of inhibition at 500 µg/mL,[41],23 mm
same,zone of inhibition at 500 µg/mL,[42],29 mm
same,zone of inhibition at 100 µg/mL,[43],10 mm
same,MIC,[44],35 µg/mL
same,zone of inhibition at 50 µg/mL,[45],8 mm
same,zone of inhibition at 50 µg/mL,[46],6 mm
same,zone of inhibition at 50 µg/mL,[47],4 mm
same,zone of inhibition at 100 µg/mL,[48],14 mm
